{"source": "patent US9814709B2", "about": "“Bruton's tyrosine kinase inhibitor” (HEFEI INSTITUTES OF PHYSICAL SCIENCE, CHINESE ACADEMY OF …, priority 2014, dated 2017)", "assay_in_all_cases": "Cancer cell growth, Cell Titer-Glo", "format_in_all_cases": "cell-based", "key": {"[1]": {"tested_on": "human lung adenocarcinoma cells A549 (expressing wild-type EGFR gene)", "conditions": "A549, 72 hrs, read-out: Half inhibitory concentration IC50", "text": "(§1) We further assessed the selectivity of Compound 1 to inhibit the proliferation of cancer cells, by testing the effect of Btk inhibitor on the growth of cancer cells. In the example, we used B-lymphoma cell Ramos, cervical cancer cells HeLa, prostate cancer cells DU145, RV-1 and C4-2, colon cancer cells HCT116, blood cancer cells K562, B-cell lymphoma cells U2932, diffuse large B-cell lymphoma cells OCI-LY10, diffuse histiocytic lymphoma cells SU-DHL-2, diffuse large B-cell lymphoma cells TMD8, human non-small cell lung cancer cells H1975 (expressing EGFR L858R/T790M double mutant gene), human lung adenocarcinoma cells A549 (expressing wild-type EGFR gene), human non-small cell lung cancer cells H460 (expressing wild-type EGFR gene), mantel cell lymphoma (MCL) cells Z-138, EB virus infected human peripheral lymphocyte cells JVM-2, MCL cells REC-1, leukemia cells AML-3, acute promyelocytic leukemia cell line NB-4(Lu+), MDS-RAEB (myelodysplastic syndrome-excessive blasts) cell line SKM-1 human leukemia cell Nomo-1, human B-cell leukemia cell line NALM6, human leukocyte leukemia cells HEL, human T-cell lymphoma cells PF-382, acute myelocytic leukemia (AML) cell line MOLM14, AML cell line MOLM13, human Burkitt's lymphoma cells Namalwa, mouse pro-B cells BaF3, all of where were purchased from ATCC. Also used were mouse TEL-EGFR-BaF3 (stably expressing TEL-EGFR activated kinase), mouse TEL-EGFR/T790-BaF3 cells (stably expressing TEL-EGFR-T790M activated mutant kinase), mouse TEL-EGFR/L858R-BaF3 cells (stably expressing TEL-EGFR-L858R activated mutant kinase), mouse TEL-EGFR/T790/L858R-BaF3 (stably expressing TEL-EGFR-T790M/L858R activated mutant kinase), mouse TEL-BMX-BaF3 cells (stably expressing TEL-BMX activated kinase), mouse TEL-JAK1-BaF3 cells (stably expressing TEL-JAK1 activated kinase), mouse TEL-JAK2-BaF3 cells (stably expressing TEL-JAK2 activated kinase), mouse TEL-JAK3-BaF3 cells (stably expressing TEL-JAK3 activated kinase), where were all established by our laboratory via the following method: the kinase domain sequences of human EGFR, BMX, JAK1, JAK2, JAK3 were amplified respectively by PCR, and these kinase were inserted into the MSCV-Puro vectors with N-terminal TEL segment (Clontech); if there was a mutation, the mutation of the corresponding site was conducted by Site-Directed Mutagenesis kit (Stratagene); the resultants were stably transfected into mouse BaF3 cells by the means of retrovirus, and the IL-3 growth factors were removed, and eventually the EGFR, BMX, JAK1, JAK2, JAK3-transferred protein dependent cell lines were obtained.\n(§2) In the example, different concentrations (0.000508 μM, 0.00152 μM, 0.00457 μM, 0.0137 μM, 0.0411 μM, 0.123 μM, 0.370 μM, 1.11 μM, 3.33 μM, 10 μM) of Compound 1 and Compound 19 were added into above cells, and were incubated for 72 hrs. The number of viable cells was determined by quantitating ATP in viable cells using Cell Titer-Glo® (Promega, U.S.) chemiluminescence cell viability assay kit."}, "[2]": {"tested_on": "human leukocyte leukemia cells HEL", "conditions": "72 hrs, read-out: Half inhibitory concentration IC50", "text": "as §1, §2"}, "[3]": {"tested_on": "diffuse large B-cell lymphoma cells TMD8", "conditions": "Homo sapiens; TMD8, 72 hrs; read-out: Half inhibitory concentration IC50", "text": "as §1, §2"}, "[4]": {"tested_on": "human T-cell lymphoma cells PF-382", "conditions": "PF-382, 72 hrs, read-out: Half inhibitory concentration IC50", "text": "as §1, §2"}, "[5]": {"tested_on": "prostate cancer cells C4-2", "conditions": "C4-2, 72 hrs; read-out: Half inhibitory concentration IC50", "text": "as §1, §2"}, "[6]": {"tested_on": "diffuse large B-cell lymphoma cells OCI-LY10", "conditions": "Homo sapiens; OCI-LY10, 72 hrs; read-out: Half inhibitory concentration IC50", "text": "as §1, §2"}, "[7]": {"tested_on": "B-lymphoma cell Ramos", "conditions": "Homo sapiens, 72 hrs, read-out: Half inhibitory concentration IC50", "text": "as §1, §2"}, "[8]": {"tested_on": "cervical cancer cells HeLa", "conditions": "Homo sapiens, 72 hrs, read-out: Half inhibitory concentration IC50", "text": "as §1, §2"}, "[9]": {"tested_on": "AML cell line MOLM13", "conditions": "Homo sapiens, MOLM-13; MOLM13, 72 hrs; read-out: Half inhibitory concentration IC50", "text": "as §1, §2"}, "[10]": {"tested_on": "colon cancer cells HCT116", "conditions": "Homo sapiens, HCT-116; HCT116, 72 hrs; read-out: Half inhibitory concentration IC50", "text": "as §1, §2"}, "[11]": {"tested_on": "human leukemia cell Nomo-1", "conditions": "Nomo-1, 72 hrs, read-out: Half inhibitory concentration IC50", "text": "as §1, §2"}, "[12]": {"tested_on": "mantel cell lymphoma (MCL) cells Z-138", "conditions": "Homo sapiens; Z-138, 72 hrs; read-out: Half inhibitory concentration IC50", "text": "as §1, §2"}, "[13]": {"tested_on": "prostate cancer cells RV-1", "conditions": "RV-1, 72 hrs; read-out: Half inhibitory concentration IC50", "text": "as §1, §2"}, "[14]": {"tested_on": "leukemia cells AML-3", "conditions": "AML3; AML-3, 72 hrs; read-out: Half inhibitory concentration IC50", "text": "as §1, §2"}, "[15]": {"tested_on": "human Burkitt's lymphoma cells Namalwa", "conditions": "Burkitts lymphoma cell, 72 hrs, read-out: Half inhibitory concentration IC50", "text": "as §1, §2"}, "[16]": {"tested_on": "human B-cell leukemia cell line NALM6", "conditions": "NALM-6, NALM6, 72 hrs, read-out: Half inhibitory concentration IC50", "text": "as §1, §2"}, "[17]": {"tested_on": "prostate cancer cells DU145", "conditions": "Homo sapiens, DU-145; DU145, 72 hrs; read-out: Half inhibitory concentration IC50", "text": "as §1, §2"}, "[18]": {"tested_on": "diffuse histiocytic lymphoma cells SU-DHL-2", "conditions": "Homo sapiens; SU-DHL-2, 72 hrs; read-out: Half inhibitory concentration IC50", "text": "as §1, §2"}}}
{"smiles": "C=CC(=O)Nc1cc(-n2c(=O)ccc3cnc4ccc(-n5cccn5)cc4c32)ccc1C", "note": "[Compound 1, N-(2-methyl-5-(2-oxo-9-(1H-pyrazol-1-yl)benzo[H][1,6]naphthyridin-1(2H)-yl)phenyl)acrylamide]", "values": [{"measurement": "IC50", "setting": "[1]", "value": 3.76, "unit": "µM"}, {"measurement": "IC50", "setting": "[2]", "value": 1.8, "unit": "µM"}, {"measurement": "IC50", "setting": "[3]", "value": 3.43, "unit": "µM"}, {"measurement": "IC50", "setting": "[4]", "value": 3.49, "unit": "µM"}, {"measurement": "IC50", "setting": "[5]", "value": "> 10", "unit": "µM"}, {"measurement": "IC50", "setting": "[6]", "value": "> 10", "unit": "µM"}, {"measurement": "IC50", "setting": "[7]", "value": "> 10", "unit": "µM"}, {"measurement": "IC50", "setting": "[8]", "value": "> 10", "unit": "µM"}, {"measurement": "IC50", "setting": "[9]", "value": 0.59, "unit": "µM"}, {"measurement": "IC50", "setting": "[10]", "value": "> 10", "unit": "µM"}, {"measurement": "IC50", "setting": "[11]", "value": 4.9, "unit": "µM"}, {"measurement": "IC50", "setting": "[12]", "value": 8.5, "unit": "µM"}, {"measurement": "IC50", "setting": "[13]", "value": "> 10", "unit": "µM"}, {"measurement": "IC50", "setting": "[14]", "value": 7.3, "unit": "µM"}, {"measurement": "IC50", "setting": "[15]", "value": 4.5, "unit": "µM"}, {"measurement": "IC50", "setting": "[16]", "value": 1.17, "unit": "µM"}, {"measurement": "IC50", "setting": "[17]", "value": "> 10", "unit": "µM"}, {"measurement": "IC50", "setting": "[18]", "value": 5.02, "unit": "µM"}]}
{"smiles": "CCC(=O)Nc1cc(-n2c(=O)ccc3cnc4ccc(-n5cccn5)cc4c32)ccc1C", "note": "[Compound 19, N-(2-methyl-5-(2-oxo-9-(1H-pyrazol-1-yl)benzo[H][1,6]naphthyridin-1(2H)-yl)phenyl) propionamide]", "values": [{"measurement": "IC50", "setting": "[1]", "value": "> 10", "unit": "µM"}, {"measurement": "IC50", "setting": "[2]", "value": "> 10", "unit": "µM"}, {"measurement": "IC50", "setting": "[3]", "value": "> 10", "unit": "µM"}, {"measurement": "IC50", "setting": "[4]", "value": "> 10", "unit": "µM"}, {"measurement": "IC50", "setting": "[5]", "value": "> 10", "unit": "µM"}, {"measurement": "IC50", "setting": "[6]", "value": "> 10", "unit": "µM"}, {"measurement": "IC50", "setting": "[7]", "value": "> 10", "unit": "µM"}, {"measurement": "IC50", "setting": "[8]", "value": "> 10", "unit": "µM"}, {"measurement": "IC50", "setting": "[9]", "value": "> 10", "unit": "µM"}, {"measurement": "IC50", "setting": "[10]", "value": "> 10", "unit": "µM"}, {"measurement": "IC50", "setting": "[11]", "value": "> 10", "unit": "µM"}, {"measurement": "IC50", "setting": "[12]", "value": "> 10", "unit": "µM"}, {"measurement": "IC50", "setting": "[13]", "value": "> 10", "unit": "µM"}, {"measurement": "IC50", "setting": "[14]", "value": "> 10", "unit": "µM"}, {"measurement": "IC50", "setting": "[15]", "value": "> 10", "unit": "µM"}, {"measurement": "IC50", "setting": "[16]", "value": "> 10", "unit": "µM"}, {"measurement": "IC50", "setting": "[17]", "value": "> 10", "unit": "µM"}, {"measurement": "IC50", "setting": "[18]", "value": "> 10", "unit": "µM"}]}
